Test results from US12377153B2, “Poly(beta-thioester) polymers and polymeric nanoparticles” (MASSACHUSETTS INSTITUTE OF TECHNOLOGY, priority 2019, dated 2025).

Tested on: dendritic cells in the draining lymph nodes
Experiment: Dendritic cell phenotype in draining lymph nodes after subcutaneous vaccination
Type: in vivo, C57BL/6J mice
Conditions: antigen alone as compared to vehicle-treated animals
Procedure: The activity of the polymeric adjuvant B18 was assessed in C57BL/6J mice. Vaccines were prepared by admixing a model peptide antigen (SIINFEKL) with B18 nanoparticles and injected subcutaneously into mice. Following three injections placed three days apart, animals were sacrificed and dendritic cell phenotype in the draining lymph nodes were analyzed using flow cytometry.

How did the dendritic cell activation turn out when SIINFEKL was run?
Its dendritic cell activation is “no appreciable dendritic cell activation”.
